Data from PMC10653547, “Synergistic effect of two antimicrobial peptides, BP203 and MAP-0403 J-2 with conventional antibiotics against colistin-resistant Escherichia coli and Klebsiella pneumoniae clinical isolates” (PLOS ONE, 2023).

Key:
[1] = tested on: colistin-resistant E. coli clinical isolates; experiment: Disk diffusion antimicrobial susceptibility testing (CLSI); type: cell-based, Escherichia coli
Protocol: (§1) Ten non-duplicate clinical isolates of colistin-resistant E. coli (EC) and ten non-duplicate clinical isolates of colistin-resistant K. pneumoniae (KP) were obtained from the bacterial repository of the Division of Infectious Diseases and Tropical Medicine, Department of Medicine, Faculty of Medicine Siriraj Hospital, Mahidol University. The species identification was conducted through standard biochemical tests. Antimicrobial susceptibility testing was carried out using the disk diffusion method following CLSI guidelines. Additionally, the assessment of colistin resistance in all isolates was performed by broth microdilution following CLSI recommendations. […] The amino acid sequences of BP203 and MAP-0403 J-2 were retrieved from previous studies. These peptides are BP100 and MAP-0403 analogs, respectively. […] Antibiotic disks and defibrinated sheep blood were obtained from Oxoid (Basingstoke, UK). All culture media were purchased from Becton Dickinson (Frankin Lakes, NJ, USA). All chemicals were obtained from Sigma-Aldrich (St. Louis, MO, USA).

[2] = tested on: colistin-resistant K. pneumoniae clinical isolates; experiment: as above; type: cell-based, Klebsiella pneumoniae
Protocol: as §1

[3] = tested on: colistin-resistant E. coli clinical isolates; experiment: Checkerboard assay for synergy testing; type: cell-based, Escherichia coli; details: checkerboard Ceftazidime+MAP-0403 J-2
Protocol: (§2) The synergistic activities of various two-antimicrobial combinations against colistin-resistant E. coli and K. pneumoniae isolates were evaluated using the checkerboard assay, which was performed in 96-well plates. […] Two-fold serial dilutions of peptides and antibiotics were independently prepared in CAMHB. Afterward, a mixture of different concentrations of the antibiotics and peptides was added to the wells of the microplates. Antibiotics and peptides were also dispended alone in the first row and the first column, respectively. Bacterial inoculum was added to the 96-well plate to achieve a final concentration of 5 × 10^5 CFU/mL. Then, plates were incubated at 37 °C for 20–24 h. MICs were recorded as the minimum concentration of antimicrobial agents without bacterial growth. The interaction between the antimicrobials was determined by calculating the fractional inhibitory concentration index (FICI) according to the formula: FICI = FIC(drug A) + FIC(drug B), where FIC = the MIC of the drug when in the combination/MIC of drug tested individually.

[4] = tested on: colistin-resistant K. pneumoniae clinical isolates; experiment: Checkerboard assay for synergy testing; type: cell-based, Klebsiella pneumoniae; details: checkerboard Ceftazidime+MAP-0403 J-2
Protocol: as §2

With CC(C)(O/N=C(\C(=O)N[C@@H]1C(=O)N2C(C(=O)[O-])=C(C[n+]3ccccc3)CS[C@H]12)c1csc(N)n1)C(=O)O [CAZ, ceftazidime] the “Interpreted results of disk diffusion” value ([1]; EC-01) was “R”, the “Interpreted results of disk diffusion” value ([1]; EC-02) was “I” and the “Interpreted results of disk diffusion” value ([1]; EC-03) was “R”. For the same molecule, the “Interpreted results of disk diffusion” value ([1]; EC-04) was “R”, the “Interpreted results of disk diffusion” value ([1]; EC-05) was “S” and the “Interpreted results of disk diffusion” value ([1]; EC-06) was “R”. For the same molecule, the “Interpreted results of disk diffusion” value ([1]; EC-07) was “I”, the “Interpreted results of disk diffusion” value ([1]; EC-08) was “S” and the “Interpreted results of disk diffusion” value ([1]; EC-09) was “I”. For the same molecule, the “Interpreted results of disk diffusion” value ([1]; EC-10) was “S”, the “%Resistance” value ([1]; ten E. coli isolates, disk diffusion) was 40% and the “Interpreted results of disk diffusion” value ([2]; KP-01) was “R”. For the same molecule, the “Interpreted results of disk diffusion” value ([2]; KP-02) was “R”, the “Interpreted results of disk diffusion” value ([2]; KP-03) was “R” and the “Interpreted results of disk diffusion” value ([2]; KP-04) was “R”. For the same molecule, the “Interpreted results of disk diffusion” value ([2]; KP-05) was “R”, the “Interpreted results of disk diffusion” value ([2]; KP-06) was “R” and the “Interpreted results of disk diffusion” value ([2]; KP-07) was “R”. For the same molecule, the “Interpreted results of disk diffusion” value ([2]; KP-08) was “R”, the “Interpreted results of disk diffusion” value ([2]; KP-09) was “R” and the “Interpreted results of disk diffusion” value ([2]; KP-10) was “R”. The “%Resistance” value ([2]; ten K. pneumoniae isolates, disk diffusion) was 100%, the MIC alone ([3]; isolate EC-01) was 8 µg/mL and the MIC combination ([3]; isolate EC-01) was 0.5 µg/mL. It also gave an MIC alone ([3]; isolate EC-02) of 16 µg/mL, an MIC combination ([3]; isolate EC-02) of 4 µg/mL and an MIC alone ([3]; isolate EC-03) of 16 µg/mL. The MIC combination ([3]; isolate EC-03) was 1 µg/mL, the MIC alone ([3]; isolate EC-04) was 4 µg/mL and the MIC combination ([3]; isolate EC-04) was 1 µg/mL. It also gave an MIC alone ([3]; isolate EC-05) of 1 µg/mL, an MIC combination ([3]; isolate EC-05) of 0.0625 µg/mL and an MIC alone ([3]; isolate EC-06) of 16 µg/mL. For the same molecule, the MIC combination ([3]; isolate EC-06) was 4 µg/mL, the MIC alone ([3]; isolate EC-07) was 16 µg/mL and the MIC combination ([3]; isolate EC-07) was 2 µg/mL. For the same molecule, the MIC alone ([3]; isolate EC-08) was 1 µg/mL, the MIC combination ([3]; isolate EC-08) was 0.25 µg/mL and the MIC alone ([3]; isolate EC-09) was 32 µg/mL. The MIC combination ([3]; isolate EC-09) was 4 µg/mL, the MIC alone ([3]; isolate EC-10) was 16 µg/mL and the MIC combination ([3]; isolate EC-10) was 2 µg/mL. It also gave an MIC combination ([4]; isolate KP-01) of 16 µg/mL, an MIC combination ([4]; isolate KP-02) of 16 µg/mL and an MIC combination ([4]; isolate KP-03) of 512 µg/mL. For the same molecule, the MIC combination ([4]; isolate KP-04) was 512 µg/mL, the MIC combination ([4]; isolate KP-05) was 512 µg/mL and the MIC combination ([4]; isolate KP-06) was 32 µg/mL. It also gave an MIC combination ([4]; isolate KP-07) of 256 µg/mL, an MIC combination ([4]; isolate KP-08) of 512 µg/mL and an MIC combination ([4]; isolate KP-09) of 512 µg/mL. The MIC combination ([4]; isolate KP-10) was 32 µg/mL.
